Series [1] in a line: Motesanib plasma pharmacokinetics (LC-MS/MS, noncompartmental). Details: species or system human. The conditions noted are these: in vivo; for half-life / Tmax / AUC(0-t) / concentration at 24 h / Cmax: human; for AUC(0-t) / concentration at 24 h / Cmax: week 3; for AUC(0-t): read-out: AUC0–24, median; for concentration at 24 h: read-out: C24, median; for Cmax: read-out: Cmax, median.
Experimental: Plasma concentrations of motesanib were analyzed using a validated liquid chromatography/tandem mass spectrometry (LC-MS/MS) method with a lower limit of quantitation (LLOQ) of 0.2 ng/mL (Cedra Corp., Austin, TX).
Pharmacokinetic parameter estimates were calculated according to standard noncompartmental methods using WinNonlin software (version 5.1.1; Pharsight Corporation, Mountain View, CA) and summarized by dose level. […] For the BID cohort, AUC0—24 values for motesanib were determined by 2 × AUC0—12. The terminal elimination rate constant (λZ) was determined by linear regression of the natural logarithms of plasma concentrations versus time during the terminal phase; the corresponding t1/2 was calculated.

In series [2] the test system is patients with advanced solid tumors. Details: method as in PMID 17557949. The conditions noted are these: monotherapy; cited from earlier work.
Series [3] deals with CYP1A2. To be noted: cited from earlier work.
The mark [4] stands for this setting: 125 mg QD motesanib + 100 mg QD erlotinib + gemcitabine.
[5] abbreviates: 125 mg QD motesanib + 150 mg QD erlotinib.

Read-outs that look alike come from different tables or passages of the source.

Usually Tmax stands for the time from dosing to the highest level. For orientation: Cmax means the maximum level reached in the sampled fluid or tissue. Turning to `CC1(C)CNc2cc(NC(=O)c3cccnc3NCc3ccncc3)ccc21` [motesanib], the half-life in series [1] (100 mg, read-out: Mean estimated terminal elimination half-life (t1/2, z)) is 4.8 to 8.6 h. The Tmax in series [1] (100 mg, read-out: Overall median tmax) lay in the range of 0.6 to 2 h. In series [1] (150 mg), the Tmax stood at 2 h and the half-life fell in the range of 6 to 7.7 h. Moreover, in series [1] (setting [4]), the AUC(0-t) worked out at 4770 ng·h/mL, the concentration at 24 h turned out to be 37 ng/mL and the highest concentration (Cmax) amounted to 655 ng/mL. For the same compound, in series [1] (setting [5]), the AUC(0-t) was found to be 3120 ng·h/mL, the concentration at 24 h is 44.7 ng/mL and the Cmax was found to be 443 ng/mL. For the same compound, the “Effect of combination on motesanib pharmacokinetics” value in series [1] was “not markedly affected”. The “Maximum tolerated dose (MTD)” value in series [2] is listed as 125 mg QD. Besides, in series [3], the “Effect on CYP1A2” value is “inducer”.
